# “And” between values parts separate entries of the source, which are not always exact repeats. Equal entries are not always repeated.
# What was measured:
# Trypanosoma cruzi [1] = test: microbe, parasite or virus in culture; format: functional, organism-based, Tulahuen LacZ, Clone C4
# [2] = DNDI: Cytotoxicity against L-6 rat myoblasts from skeletal muscle cells; conditions: L6 rat skeletal muscle myoblast cells
# Trypanosoma cruzi [3] = test: microbe, parasite or virus in culture; format: functional, Tulahuen LacZ, Clone C4
# [4] = Trypanosoma cruzi, Tulahuen LacZ, Clone C4
SMILES,IC50 (Trypanosoma cruzi [1]; [4]) [nM],IC50 ([2]; IC50) [nM],IC90 (Trypanosoma cruzi [3]; [4]) [nM],IC50 (Trypanosoma cruzi [1]),IC90 (Trypanosoma cruzi [3]),IC50 [2] [nM]
OC(c1ccc(C(F)(F)F)cc1)(c1cncc(F)c1)c1ccc(Cl)cc1F (stereo not given),194,51400,422,,,
O=C(NC(c1ccc(Cl)cc1)c1cccnc1)c1ccc(C(F)(F)F)cc1 (stereo not given),250,62600,690,,,
O=C(C1CCCCC1)N1CCC(NC(c2cnccn2)c2ccc(F)cc2F)CC1 (stereo not given),570,> 100000,990,,,
CCC(=O)N1CCN(C(c2cncnc2)c2ccc(Cl)cc2F)CC1 (stereo not given),440,> 100000,860,,,
NC(=O)c1cccc(C(O)(c2ccc(Cl)cc2)c2cccnc2)c1 (stereo not given),,> 100000,,30 nM and 78 nM,100 nM and 320 nM,
O=C(c1ccccc1)N1CCC(NC(c2cccnc2)c2ccc(Cl)cc2F)CC1 (stereo not given),58,70800,248,,,
CC(C)c1ccc(S(=O)(=O)NC2CCN(C(c3ccc(C(F)(F)F)cc3)c3cnccn3)CC2)cc1 (stereo not given),520,18400,> 1000,,,
CC(C)Oc1ccc(C(c2cccnc2)N2CCC(NS(C)(=O)=O)CC2)cc1 (stereo not given),110,> 100000,320,,,
O=C(c1ccccc1)N1CCC(NC(c2ccc(C(F)(F)F)cc2)c2cnccn2)CC1 (stereo not given),320,> 100000,910,,,
FC(F)(F)c1ccc(C(c2cccnc2)N2CCC(Oc3ccccc3Cl)CC2)cc1 (stereo not given),41,60100,93,,,
O=C(c1ccccc1)N1CCC(NC(c2ccc(Cl)cc2)c2cccnc2)CC1 (stereo not given),84,> 100000,190,,,
CC(C)(C)CC(=O)N1CCN(C(c2ccc(Cl)cc2)c2cncnc2)CC1 (stereo not given),240,> 100000,620,,,
Cc1ncsc1C(=O)NC1CCN(C(c2ccc(C(F)(F)F)cc2)c2cccnc2)CC1 (stereo not given),18,60400,82,,,
CN(C)C(=O)N1CCC(NC(c2cnccn2)c2ccc(F)cc2F)CC1 (stereo not given),> 1000,> 100000,> 1000,,,
CC(C)CS(=O)(=O)NC1CCN(C(c2ccc(C(F)(F)F)cc2)c2cnccn2)CC1 (stereo not given),550,62300,880,,,
FC(F)(F)c1ccc(C(NCC2CCCCC2)c2cccnc2)cc1 (stereo not given),110,54000,220,,,
N#Cc1ccc(C(c2cccnc2)N2CCC(NC(=O)c3c(F)cccc3C(F)(F)F)CC2)cc1 (stereo not given),4.48,> 100000,10.4,,,
Fc1ccc(N2CCC(NC(c3cccnc3)c3ccc(Cl)cc3F)CC2)c(C(F)(F)F)c1 (stereo not given),32,58900,50,,,
Cc1cc(C(=O)NC2CCN(C(c3ccc(C(F)(F)F)cc3)c3cccnc3)CC2)n(C)n1 (stereo not given),12,54600,28.5,,,
N#Cc1ccc(C(c2cccnc2)N2CCC(NC(=O)c3ccc(F)cc3F)CC2)cc1 (stereo not given),10,> 100000,40,,,
O=S(=O)(c1ccccc1)N1CCC(NC(c2cnccn2)c2ccc(F)cc2F)CC1 (stereo not given),400,72200,880,,,
CC(C)CS(=O)(=O)N1CCC(NC(c2ccc(C(F)(F)F)cc2)c2cnccn2)CC1 (stereo not given),330,> 100000,880,,,
Cc1nc(C)c(C(=O)NC2CCN(C(c3ccc(C#N)cc3)c3cccnc3)CC2)s1 (stereo not given),59,> 100000,118,,,

SMILES,IC50 (Trypanosoma cruzi [1]; [4]) [nM],IC50 ([2]; IC50) [nM],IC90 (Trypanosoma cruzi [3]; [4]) [nM],IC50 (Trypanosoma cruzi [1]),IC90 (Trypanosoma cruzi [3]),IC50 [2] [nM]
O=C(NC1CCCCC1)N1CCC(NC(c2ccc(Cl)cc2)c2cccnc2)CC1 (stereo not given),30,> 100000,100,,,
CC(C)C(O)(c1ccc(Cl)cc1)c1cncnc1 (stereo not given),2240,> 100000,21000,,,
CC(C)C(=O)NC(c1ccc(C(F)(F)F)cc1)c1cnccn1 (stereo not given),> 10000,> 100000,> 10000,,,
CC(C)CS(=O)(=O)NC(c1ccc(C(F)(F)F)cc1)c1cnccn1 (stereo not given),> 1000,> 100000,> 1000,,,
N#Cc1ccc(C(O)(c2ccc(Cl)cc2)c2cccnc2)cc1 (stereo not given),59,> 100000,160,,,
CC1=C(C(=O)Nc2ccccc2)S(=O)(=O)CCO1 [OXYCARBOXIN],65100,,> 100000,,,> 100000
FC(F)(F)Cn1cc(C(NC2CCN(c3ccc(C(F)(F)F)cc3)CC2)c2cccnc2)cn1 (stereo not given),46,71200,88,,,
Cn1cc(C(=O)N2CCC(NC(c3ccc(C(F)(F)F)cc3)c3cccnc3)CC2)cn1 (stereo not given),384,> 100000,655,,,
O=C(NC(c1ccc(C(F)(F)F)cc1)c1cnccn1)C1CC1 (stereo not given),> 10000,> 100000,> 10000,,,
Fc1ccccc1OC1CCN(C(c2ccc(C(F)(F)F)cc2)c2cccnc2)CC1 (stereo not given),62,67800,> 90,,,
OC(c1ccc(Cl)cc1)(c1ccncn1)c1ccccc1Cl (stereo not given),7050,,8570,,,> 100000
N#Cc1ccc(C(c2cccnc2)N2CCC(NC(=O)c3ccccc3F)CC2)cc1 (stereo not given),23.5,> 100000,402,,,
CS(=O)(=O)NC1CCN(C(c2cnccn2)c2ccc(F)cc2F)CC1 (stereo not given),1380,> 100000,4980,,,
OC(c1ccc(Cl)cc1)(c1ccc(C(F)(F)F)cc1)c1cc(-c2ccccc2)on1 (stereo not given),> 1000,18700,> 1000,,,
Cc1nc(C(=O)NC2CCN(C(c3ccc(C#N)cc3)c3cccnc3)CC2)cs1 (stereo not given),65,> 100000,156,,,
O=C(c1ccc(Cl)cc1)N1CCC(NC(c2cnccn2)c2ccc(F)cc2F)CC1 (stereo not given),260,> 100000,700,,,
OC(c1ccc(Cl)cc1)(c1cccnc1)c1cc(F)ccc1F (stereo not given),44,,108,,,> 100000
OC(c1cccnc1)(c1ccsc1)c1ccccc1Cl (stereo not given),509,> 100000,875,,,
OC(CC1CCCCC1)(c1ccc(Cl)cc1)c1cncnc1 (stereo not given),154,64700,368,,,
Cc1cc(C(=O)NC2CCN(C(c3cncnc3)c3ccc(Cl)cc3F)CC2)no1 (stereo not given),76,> 100000,377,,,
O=C(c1cccc(C(O)(c2ccc(Cl)cc2)c2cccnc2)c1)N1CCC(O)CC1 (stereo not given),118,> 100000,732,,,
Cc1ncsc1C(=O)N1CCN(C(c2cccnc2)c2ccc(Cl)cc2F)CC1 (stereo not given),36,92700,244,,,
CS(=O)(=O)N1CCN(C(c2ccc(Cl)cc2)c2cccnc2)CC1 (stereo not given),110,> 100000,216,,,

SMILES,IC50 (Trypanosoma cruzi [1]; [4]) [nM],IC50 ([2]; IC50) [nM],IC90 (Trypanosoma cruzi [3]; [4]) [nM],IC50 (Trypanosoma cruzi [1]),IC90 (Trypanosoma cruzi [3]),IC50 [2] [nM]
CCS(=O)(=O)N1CCN(C(c2ccc(Cl)cc2)c2cncnc2)CC1 (stereo not given),260,> 100000,850,,,
N#Cc1ccc(C(c2cccnc2)N2CCC(NC(=O)c3ccccc3C(F)(F)F)CC2)cc1 (stereo not given),4.5,> 100000,12,4 nM,15.5 nM,
N#Cc1ccc(C(c2cccnc2)N2CCC(NC(=O)c3ccccc3)CC2)cc1 (stereo not given),24,> 100000,79,,90 nM,
O=S(=O)(Cc1ccccc1)NC(c1ccc(C(F)(F)F)cc1)c1cnccn1 (stereo not given),> 1000,> 100000,> 1000,,,
CCn1cc(C(NC2CCN(c3ccc(C(F)(F)F)cc3)CC2)c2cccnc2)cn1 (stereo not given),53.5,> 100000,92,,,
CC(C)S(=O)(=O)N1CCC(NC(c2cnccn2)c2ccc(F)cc2F)CC1 (stereo not given),340,> 100000,790,,,
CS(=O)(=O)Nc1ccc(C(O)(c2ccc(Cl)cc2)c2cccnc2)cc1 (stereo not given),30,> 100000,240,,,
CN(C)C(=O)N1CCC(NC(c2ccc(Cl)cc2)c2cccnc2)CC1 (stereo not given),170,> 100000,340,,,
CC(C)c1ccc(NC(=O)NC2CCN(C(c3ccc(Cl)cc3)c3cccnc3)CC2)cc1 (stereo not given),3,> 100000,30,,,
O=C(C1CCCCC1)N1CCC(NC(c2ccc(C(F)(F)F)cc2)c2cnccn2)CC1 (stereo not given),200,83800,540,,,
O=C(C1CC1)N1CCC(NC(c2cnccn2)c2ccc(F)cc2F)CC1 (stereo not given),1380,> 100000,3860,,,
N#Cc1ccccc1N1CCC(NC(c2ccc(C(F)(F)F)cc2)c2cccnc2)CC1 (stereo not given),7,52300,20.5,,,
CC(C)NC(=O)N1CC(=O)N(c2cc(Cl)cc(Cl)c2)C1=O [IPRODIONE],49000,,> 100000,,,> 100000
CCNC(=O)NC1CCN(C(c2ccc(Cl)cc2)c2cccnc2)CC1 (stereo not given),97,> 100000,300,,,
CCC(=O)N1CCN(C(c2ccc(Cl)cc2)c2cncnc2)CC1 (stereo not given),850,> 100000,4830,,,
CON=C(Cc1ccccc1C)c1cccnc1,> 1000,> 100000,> 1000,,,
CCN(CC)C(=O)N1CCC(NC(c2ccc(OC(C)C)cc2)c2cccnc2)CC1 (stereo not given),7,> 100000,36,,,
Cc1nc(N2CCC(NC(c3cccnc3)c3ccc(Cl)cc3F)CC2)no1 (stereo not given),64,> 100000,140,,,
N#Cc1ccc(C(c2cccnc2)N2CCC(NC(=O)c3cccc(C(F)(F)F)c3)CC2)cc1 (stereo not given),23,> 100000,75.5,,,
O=C(Nc1ccccc1)NC1CCN(C(c2ccc(C(F)(F)F)cc2)c2cccnc2)CC1 (stereo not given),14,31700,36,,,
CC(C)(C)NC(=O)N1CCC(NC(c2cccnc2)c2ccc(Cl)cc2F)CC1 (stereo not given),79.5,> 100000,428,,,
CN(C)C(=O)C1CCN(C(c2ccc(C(F)(F)F)cc2)c2cnccn2)CC1 (stereo not given),1010,> 100000,3410,,,
O=S(=O)(Cc1ccccc1)N1CCN(C(c2cncnc2)c2ccc(Cl)cc2F)CC1 (stereo not given),72,62400,180,,,

# Reference: ChEMBL document CHEMBL1862790, “Optimisation of fenarimol series for the treatment of Chagas disease”
